Publication doi:10.1101/625897v2 (biorxiv, 2019)

Assays:
Assay in all cases: inside-out patch clamp, Cl- current stimulation
ANO1 (TMEM16A; mTMEM16A) [1] = target: T1, ANO1 (TMEM16A; mTMEM16A) (Mus musculus, UniProt Q8BHY3); assay type: cell-based
T1 sequence (Q8BHY3 1-960): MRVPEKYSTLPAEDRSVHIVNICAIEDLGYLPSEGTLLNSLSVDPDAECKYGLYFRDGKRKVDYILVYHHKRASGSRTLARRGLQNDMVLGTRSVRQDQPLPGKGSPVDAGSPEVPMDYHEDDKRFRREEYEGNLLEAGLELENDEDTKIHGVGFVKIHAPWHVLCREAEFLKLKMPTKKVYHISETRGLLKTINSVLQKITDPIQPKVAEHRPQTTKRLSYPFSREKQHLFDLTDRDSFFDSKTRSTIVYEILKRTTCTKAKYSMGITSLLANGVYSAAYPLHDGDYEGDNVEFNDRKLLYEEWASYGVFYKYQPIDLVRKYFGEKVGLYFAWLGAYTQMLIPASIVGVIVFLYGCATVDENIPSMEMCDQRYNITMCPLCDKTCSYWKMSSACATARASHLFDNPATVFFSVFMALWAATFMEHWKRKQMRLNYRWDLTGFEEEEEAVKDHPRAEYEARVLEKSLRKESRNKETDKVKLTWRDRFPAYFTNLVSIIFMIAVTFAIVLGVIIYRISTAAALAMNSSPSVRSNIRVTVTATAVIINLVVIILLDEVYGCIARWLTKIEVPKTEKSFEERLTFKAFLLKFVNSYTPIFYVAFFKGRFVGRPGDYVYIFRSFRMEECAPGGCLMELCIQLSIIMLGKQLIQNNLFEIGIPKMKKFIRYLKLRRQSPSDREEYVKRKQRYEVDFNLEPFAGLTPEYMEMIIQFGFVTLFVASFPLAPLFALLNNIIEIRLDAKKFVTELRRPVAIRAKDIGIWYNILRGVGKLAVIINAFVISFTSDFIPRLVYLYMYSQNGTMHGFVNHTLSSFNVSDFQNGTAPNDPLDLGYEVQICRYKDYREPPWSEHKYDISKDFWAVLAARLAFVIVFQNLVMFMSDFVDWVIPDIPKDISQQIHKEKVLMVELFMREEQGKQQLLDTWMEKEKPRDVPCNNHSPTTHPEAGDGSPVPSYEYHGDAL

ANO1 (TMEM16A; mTMEM16A) [2] = target: T1, ANO1 (TMEM16A; mTMEM16A); assay type: biochemical; settings: +100 mV, 270 nM Ca2+; wild-type reference of the mutant set
ANO1 (TMEM16A; mTMEM16A) [3] = target: T1, ANO1 (TMEM16A; mTMEM16A); assay type: biochemical; settings: +100 mV, 270 nM Ca2+

Row | SMILES | EC50 (ANO1 (TMEM16A; mTMEM16A) [1]) [nM] | ΔIPIP2 (% current increase) at 10 μM (ANO1 (TMEM16A; mTMEM16A) [2]) [%] | % current increase at 10 μM (ANO1 (TMEM16A; mTMEM16A) [3]) [%]
1 | CCCCCCCC(=O)OC[C@H](COP(=O)(O)O[C@@H]1[C@H](O)[C@H](O)[C@@H](OP(=O)(O)O)[C@H](OP(=O)(O)O)[C@H]1O)OC(=O)CCCCCCC [diC8-PI(4,5)P2] | 1240 | 89.9 ± 16.8 | –
2 | CCCCCCCC(=O)OC[C@H](COP(=O)(O)O[C@H]1[C@H](O)[C@@H](OP(=O)(O)O)[C@H](OP(=O)(O)O)[C@@H](OP(=O)(O)O)[C@H]1O)OC(=O)CCCCCCC [diC8-PI(3,4,5)P3] | – | – | 31 ± 12
